Columns and labels:
Details in all cases: male, C57BL/6, mouse
Bcl2l11 = test: Biomarkers validation by q-pcr in precision cut liver slices: Bcl2l11 expression
Procedure: (§1) 23-weeks old male C57BL/6 mice were obtained from Harlan (Horst, The Netherlands). Animals were kept for 1 week at a housing temperature of 22°C and at a relative humidity of 30-70%. The lighting cycle was 12-h light and 12-h dark. At the age of 24 weeks animals were sacrificed by an overdose of isoflurane. The treatment protocol was approved by the Ethical Committee for Animal Experiments at Wageningen University.
(§2) Immediately after the animals were killed the liver was perfused with PBS and placed in ice-cold Krebs-Henseleit buffer (KHB) (pH 7.4, supplemented with 11 mM glucose). Liver tissue was transported to the laboratory within approximately 30 min and cylindrical liver cores were produced using a surgical biopsy punch with diameter of 5 mm (KAI, SynErgo Europe, Romania). Liver cores were placed in a Krumdieck tissue slicer (Alabama Research and Development, Munford, AL) filled with ice-cold KHB aerated with carbogen and supplemented with 11 mM glucose. Precesion cut liver slices (PCLS) with a diameter of 5 mm, a thickness of 0.2 mm and a weight of approximately 10 mg were prepared. Immediately after preparation, slices were transferred into culture plates filled with pre-warmed (37 degrees C) Williams E medium (WEM). Three liver slices were pre-cultured in one well of the 6-well plate filled with 4 ml of WEM for one hour with continuous shaking (70 rpm). Incubations were performed in an oxygen controlled incubator (Galaxy 48 R New Brunswick, Nijmegen, the Netherlands) at 80% of oxygen; 5% CO2 and the remaining gas volume was filled up to […] with N2. After one hour of pre-incubation, media were removed and replaced with fresh media containing test compounds or appropriate solvents. After incubations, samples were snap-frozen in liquid nitrogen and stored in -80 °C for further analysis. Samples dedicated to histology were stored in 4 % formaldehyde at room temperature.
(§3) PCLS were incubated at the same conditions as described above. Slices were exposed for 24 and 48 hours to one concentration of the tested compounds or controls. Concentrations used in the exposure experiments were preselected in the dose selection experiments for each drug individually. […] For the necrotic compounds: 1000 uM acetaminophen, 5 µM paraquat and 1000 uM isoniazid. Liver slices obtained from five mice were used in five toxic compound or control exposure experiments performed at the same time. Dose selection experiments and exposure experiments were performed at different days. Therefore, ATP, LDH, and protein assays were performed again for the exposure experiments to confirm that the selected doses did also not affect slice viability in these experiments.
(§4) In further studies, expression of ten candidate biomarkers in PCLS was analyzed by q-pcr using the Biorad CFX96 TM Real-Time Detection System (Bio-Rad, Veenendaal, The Netherlands) with the following cycling conditions: 15 min 95°C followed by 40 cycles of 15s 95 °C and 1 min 60 °C. Reactions were performed in 10 µl and contained 20 ng cDNA, 1x TaqMan PCR Master Mix (Applied Biosystems, Foster City, CA), and depending on the analysed gene, 250 nM probe and 900 nM primer (for actin b) or 1xTaqMan gene expression assay (for the remaining genes) (Applied Biosystems, foster City, CA).

Parp16 = test: Biomarkers validation by q-pcr in precision cut liver slices: Parp16 expression
Procedure: as §1, §2, §3, §4

Mras = test: Biomarkers validation by q-pcr in precision cut liver slices: Mras expression
Procedure: as §1, §2, §3, §4

Myo1e = test: Biomarkers validation by q-pcr in precision cut liver slices: Myo1e expression
Procedure: as §1, §2, §3, §4

Nme6 = test: Biomarkers validation by q-pcr in precision cut liver slices: Nme6 expression
Procedure: as §1, §2, §3, §4

ABCG5 = test: Biomarkers validation by q-pcr in precision cut liver slices: ABCG5 expression
Procedure: as §1, §2, §3, §4

ABCG8 = test: Biomarkers validation by q-pcr in precision cut liver slices: ABCG8 expression
Procedure: as §1, §2, §3, §4

SERPINE1 = test: Biomarkers validation by q-pcr in precision cut liver slices: SERPINE1 expression
Procedure: as §1, §2, §3, §4

BAAT = test: Biomarkers validation by q-pcr in precision cut liver slices: BAAT expression
Procedure: as §1, §2, §3, §4

KLF15 = test: Biomarkers validation by q-pcr in precision cut liver slices: KLF15 expression
Procedure: as §1, §2, §3, §4

PCLS = test: Cytotoxicity analysis - dose selection experiments (LDH, ATP, protein assay)
Procedure: as §1, §2, §3

*fold change 1, gene expression level Bcl2111 (Bcl2l11): -1,2
*fold change 2, gene expression level Bcl2111 (Bcl2l11): -1,4
*fold change 3, gene expression level Bcl2111 (Bcl2l11): -1,2
*fold change 4, gene expression level Bcl2111 (Bcl2l11): -1,9
*fold change 5, gene expression level Bcl2111 (Bcl2l11): -2,3
*fold change 1, gene expression level Parp 16 (Parp16): -1,1
*fold change 2, gene expression level Parp 16 (Parp16): -1,4
*fold change 3, gene expression level Parp 16 (Parp16): -1,1
*fold change 4, gene expression level Parp 16 (Parp16): -1,4
*fold change 5, gene expression level Parp 16 (Parp16): -1,0
*fold change 1, gene expression level Mras (Mras): 1,3
*fold change 2, gene expression level Mras (Mras): 2,0
*fold change 3, gene expression level Mras (Mras): 2,6
*fold change 4, gene expression level Mras (Mras): 1,4
*fold change 5, gene expression level Mras (Mras): 1,1
*fold change 1, gene expression level Myo 1e (Myo1e): -1,1
*fold change 2, gene expression level Myo 1e (Myo1e): -1,0
*fold change 3, gene expression level Myo 1e (Myo1e): 1,1
*fold change 4, gene expression level Myo 1e (Myo1e): 1,0
*fold change 5, gene expression level Myo 1e (Myo1e): -1,1
*fold change 1, gene expression level Nme6 (Nme6): 1,1
*fold change 2, gene expression level Nme6 (Nme6): 1,3
*fold change 3, gene expression level Nme6 (Nme6): 1,7
*fold change 4, gene expression level Nme6 (Nme6): 1,3
*fold change 5, gene expression level Nme6 (Nme6): 1,2
*fold change 1, gene expression level ABCG5 (ABCG5): -4,2
*fold change 2, gene expression level ABCG5 (ABCG5): -2,9
*fold change 3, gene expression level ABCG5 (ABCG5): -6,7
*fold change 4, gene expression level ABCG5 (ABCG5): -3,8
*fold change 5, gene expression level ABCG5 (ABCG5): -1,0
*fold change 1, gene expression level ABCG8 (ABCG8): -2,9
*fold change 2, gene expression level ABCG8 (ABCG8): -2,1
*fold change 3, gene expression level ABCG8 (ABCG8): -5,4
*fold change 4, gene expression level ABCG8 (ABCG8): -4,5
*fold change 5, gene expression level ABCG8 (ABCG8): -1,1
*fold change 1, gene expression level SERPINE1 (SERPINE1): 2,9
*fold change 2, gene expression level SERPINE1 (SERPINE1): -1,4
*fold change 3, gene expression level SERPINE1 (SERPINE1): -4,7
*fold change 4, gene expression level SERPINE1 (SERPINE1): -5,8
*fold change 5, gene expression level SERPINE1 (SERPINE1): -1,8
*fold change 1, gene expression level BAAT (BAAT): -2,3
*fold change 2, gene expression level BAAT (BAAT): -3,3
*fold change 3, gene expression level BAAT (BAAT): -8,5
*fold change 4, gene expression level BAAT (BAAT): -6,4
*fold change 5, gene expression level BAAT (BAAT): 1,4
*fold change 1, gene expression level KLF15 (KLF15): -2,0
*fold change 2, gene expression level KLF15 (KLF15): -1,8
*fold change 3, gene expression level KLF15 (KLF15): -3,2
*fold change 4, gene expression level KLF15 (KLF15): -1,8
*fold change 5, gene expression level KLF15 (KLF15): 1,6
SMILES: CN(C)CCCN1c2ccccc2Sc2ccc(Cl)cc21 [CPZ, chlorpromazine]
highest concentration that did not cause significant increase of toxicity (PCLS): 10 µM

From patent EP2762573A1, “In vitro method for determining cholestatic properties of a compound” (priority 2013, dated 2014)
